One block for each compound: values may come before it.
Key:
off-target kinase = conditions: literature; cited from earlier work
467 other kinases = test: KINOMEScan assay; type: binding; conditions: tested at 1 micromolar; compared to 467 other kinases
[1] = tested on: bleomycin-induced lung fibrosis; test: bleomycin-induced lung fibrosis, prevention model; type: in vivo, C57BL/6 mice; conditions: for lung damage (Ashcroft score): day 23, vs vehicle; for airways resistance (AHR): vs vehicle
Method: (§1) FIG. 1. Protocols used to assess the ability of the compound of Formula I to prevent or treat lung fibrosis induced by intratracheal bleomycin (30 μl; 0.05 U/mouse) or PBS (30 μl; vehicle control).
FIG. 3. Prevention Protocol. a) Measurement of mouse lung fibrosis on day 23 after treatment with PBS, bleomycin and vehicle, bleomycin and the compound of formula I 40 mg/kg or 80 mg/kg (n=8 mice per group). (a) The Ashcroft score was used to obtain a semi quantitative analysis of fibrosis (n=4 mice per group). (b) Acid-soluble collagen content in the mouse lung (n=8 mice per group).
(§2) FIG. 5. Measurements of airways hyper-responsiveness (AHR) after methacholine challenge in the mouse lung. Panels (a)-(d) prevention protocol at day 23 after a single intra-tracheal dose with PBS or bleomycin and oral dosing with the compound of formula I as indicated. Panels (e)-(h) treatment protocol at day 22 after a single intra-tracheal dose with PBS or bleomycin and oral dose with the compound of formula I as indicated. Panels (a, e) show airways resistance, (b, f) transpulmonary resistance, (c, g) elastance, and (d, h) compliance following challenge with 10 mg/ml methacholine.
(§3) Lung fibrosis in female C57BL/6 mice aged between 6-8 weeks (ARC, Perth, Australia) was induced by a single intra-tracheal dose of bleomycin (0.05 U/mouse). Control mice received 30 μl of buffered saline.
Mice in the prevention study were dosed orally once daily from 24 hours post bleomycin administration until day 22 with either 200 μl of vehicle (Sterile water containing 0.5% (w/v) hydroxypropylmethylcellulose, 0.5% (v/v) benzyl alcohol and 0.4% (v/v) Tween 80), or the compound of Formula I at a dosage of 40 mg/kg or 80 mg/kg by oral gavage.
(§4) There were eight mice per group for all experiments and all mice were weighed daily during administration of the treatments.

[2] = tested on: bleomycin-induced lung fibrosis; test: bleomycin-induced lung fibrosis, treatment model; type: in vivo, C57BL/6 mice
Method: as §1
FIG. 4. […] (a) The Ashcroft score was used to obtain a semi quantitative analysis of fibrosis (n=4 mice per group). (b) Acid-soluble collagen content in the mouse lung (n=8 mice per group).
as §2, §3, §4

common cytochrome P450s = test: inhibition of common cytochrome P450s
[3] = exposure following oral dosing in rats
[4] = exposure following oral dosing in mice
[5] = exposure following oral dosing in dogs
rat hepatocytes = test: metabolites upon exposure to rat hepatocytes
dog hepatocytes = test: metabolites upon exposure to dog hepatocytes
human hepatocytes = test: metabolites upon exposure to human hepatocytes
primate hepatocytes = test: metabolites upon exposure to primate hepatocytes
[6] = tested on: idiopathic pulmonary fibrosis; conditions: cited from earlier work; for reduction in the rate of decline in FVC: patients with mild or moderate FVC impairment at baseline, over 1 year of treatment
[7] = patients with IPF; cited from earlier work

Compound: CN(c1ncccc1CNc1nc(Nc2ccc3c(c2)CC(=O)N3)ncc1C(F)(F)F)S(C)(=O)=O [PF-562,271]
off-target kinase activity (off-target kinase): significant off-target kinase activity

Compound: CNC(=O)c1ccccc1Nc1nc(Nc2ccc(N3CCOCC3)cc2OC)ncc1Cl [TAE226]
off-target kinase activity (off-target kinase): significant off-target kinase activity

inhibition of common cytochrome P450s (common cytochrome P450s): no detectable inhibition
exposure dose proportionality [3]: dose-proportional exposures
exposure dose proportionality [4]: dose-proportional exposures
exposure dose proportionality [5]: dose-proportional exposures
unique metabolites (rat hepatocytes): no unique metabolites
unique metabolites (dog hepatocytes): no unique metabolites
unique metabolites (human hepatocytes): no unique metabolites
unique metabolites (primate hepatocytes): no unique metabolites
Compound: COc1cc(C2CCN(C)CC2)ccc1Nc1ncc(C(F)(F)F)c(CCc2ccccc2CC(N)=O)n1 [compound of Formula I]
S10 selectivity score (467 other kinases): 0.02
other measures of AHR (transpulmonary resistance, elastance, compliance) ([1]; 10 mg/ml methacholine): did not significantly inhibit other measures of AHR
lung damage (Ashcroft score) ([1]; 40 mg/kg oral once daily): attenuated bleomycin-induced lung damage
airways resistance (AHR) ([1]; 40 mg/kg, 10 mg/ml methacholine): significantly decreased airways resistance
lung damage (Ashcroft score) ([1]; 80 mg/kg oral once daily): not at 80 mg/kg attenuated bleomycin-induced lung damage
airways resistance (AHR) ([1]; 80 mg/kg, 10 mg/ml methacholine): significantly decreased airways resistance
airways resistance (AHR) ([2]; 10 mg/ml methacholine, vs vehicle): no effect on airways resistance
all other measures of AHR (transpulmonary resistance, elastance, compliance) ([2]; dosing from day 7 after bleomycin, 10 mg/ml methacholine, vs vehicle): effectively reversed the AHR
lung damage (Ashcroft score) ([2]; dosing from day 7 after bleomycin, day 22, vs vehicle): did not significantly alter bleomycin-induced lung damage

Compound: COC(=O)c1ccc2c(c1)NC(=O)/C2=C(\Nc1ccc(N(C)C(=O)CN2CCN(C)CC2)cc1)c1ccccc1 [nintedanib]
deterioration of FVC on extended treatment ([6]; extended treatment for up to four years): sustained decline in deterioration of FVC
reduction in the rate of decline in FVC [6]: approximately 50%
side effects / most common adverse effects [7]: nausea and diarrhea

Compound: Cc1ccc(=O)n(-c2ccccc2)c1 [pirfenidone]
reduction in the rate of decline in FVC [6]: approximately 50%
side effects / most common adverse effects [7]: diarrhea, photosensitivity and rash
